Patent US20260285872A1, “COMPOUNDS AND METHODS FOR DEGRADING GSPT1” (priority 2023, published 2026)
Like-named read-outs stand apart in the source and are kept apart here.

What was measured:
NCI-H1155 cells = experiment: NSCLC cell viability, CellTiter-Glo, NCI-H1155 cells; assay type: cell-based; conditions: Homo sapiens, read-out: Cell viability classification (NCI-H1155)
GSPT1 = GSPT1 (Homo sapiens, UniProt P15170+Q96SW2); assay type: cell-based
Description: GSPT1_HiBIT_HEK293 cells were culture in DMEM medium with 10% FBS under standard tissue culture conditions. […] GSPT1 level was determined in along with the Nano-Glo HiBiT Lytic Detection system [Promega N3050] with final concentration of 1×. The luminescence was normalized to that of DMSO-treated samples. DC50 values were obtained using three-parameter non-linear regressions using Prism (GraphPad).

[1] = NCI-H1155 cells, CellTiter-Glo, 72 hours of treatment
[2] = DC50, GSPT1_HiBIT_HEK293 cells, 16 hours, Nano-Glo HiBiT Lytic Detection; read-out: GSPT1 degradation classification
[3] = read-out: GSPT1 degradation classification; DC50, GSPT1_HiBIT_HEK293 cells, 16 hours, Nano-Glo HiBiT Lytic Detection

GSPT1, sequence (P15170 whole entry): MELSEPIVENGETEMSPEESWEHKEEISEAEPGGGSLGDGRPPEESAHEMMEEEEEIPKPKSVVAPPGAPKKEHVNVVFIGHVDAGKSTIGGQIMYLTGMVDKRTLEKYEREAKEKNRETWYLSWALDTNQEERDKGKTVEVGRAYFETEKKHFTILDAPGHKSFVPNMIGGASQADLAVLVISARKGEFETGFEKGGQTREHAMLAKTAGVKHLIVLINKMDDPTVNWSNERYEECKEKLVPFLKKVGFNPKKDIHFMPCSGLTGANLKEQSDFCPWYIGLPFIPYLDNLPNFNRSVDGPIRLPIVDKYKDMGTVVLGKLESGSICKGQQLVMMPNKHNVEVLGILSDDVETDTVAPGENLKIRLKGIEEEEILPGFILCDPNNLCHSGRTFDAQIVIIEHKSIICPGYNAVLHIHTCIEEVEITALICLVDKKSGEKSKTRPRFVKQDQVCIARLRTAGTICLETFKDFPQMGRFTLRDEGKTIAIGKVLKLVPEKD
GSPT1, sequence (Q96SW2 whole entry): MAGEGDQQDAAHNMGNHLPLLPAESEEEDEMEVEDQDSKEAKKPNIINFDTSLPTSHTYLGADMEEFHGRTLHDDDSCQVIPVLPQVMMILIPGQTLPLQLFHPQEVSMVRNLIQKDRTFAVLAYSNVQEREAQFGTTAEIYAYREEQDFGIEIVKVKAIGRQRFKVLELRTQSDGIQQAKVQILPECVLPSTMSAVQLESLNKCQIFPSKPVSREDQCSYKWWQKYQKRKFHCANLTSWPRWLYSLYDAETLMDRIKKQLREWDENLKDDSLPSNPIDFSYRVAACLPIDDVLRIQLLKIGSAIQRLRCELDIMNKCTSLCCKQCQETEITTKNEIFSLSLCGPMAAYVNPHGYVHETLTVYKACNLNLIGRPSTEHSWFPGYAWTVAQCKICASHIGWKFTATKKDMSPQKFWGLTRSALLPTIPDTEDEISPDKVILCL
GSPT1, sequence (Q16531 whole entry partner): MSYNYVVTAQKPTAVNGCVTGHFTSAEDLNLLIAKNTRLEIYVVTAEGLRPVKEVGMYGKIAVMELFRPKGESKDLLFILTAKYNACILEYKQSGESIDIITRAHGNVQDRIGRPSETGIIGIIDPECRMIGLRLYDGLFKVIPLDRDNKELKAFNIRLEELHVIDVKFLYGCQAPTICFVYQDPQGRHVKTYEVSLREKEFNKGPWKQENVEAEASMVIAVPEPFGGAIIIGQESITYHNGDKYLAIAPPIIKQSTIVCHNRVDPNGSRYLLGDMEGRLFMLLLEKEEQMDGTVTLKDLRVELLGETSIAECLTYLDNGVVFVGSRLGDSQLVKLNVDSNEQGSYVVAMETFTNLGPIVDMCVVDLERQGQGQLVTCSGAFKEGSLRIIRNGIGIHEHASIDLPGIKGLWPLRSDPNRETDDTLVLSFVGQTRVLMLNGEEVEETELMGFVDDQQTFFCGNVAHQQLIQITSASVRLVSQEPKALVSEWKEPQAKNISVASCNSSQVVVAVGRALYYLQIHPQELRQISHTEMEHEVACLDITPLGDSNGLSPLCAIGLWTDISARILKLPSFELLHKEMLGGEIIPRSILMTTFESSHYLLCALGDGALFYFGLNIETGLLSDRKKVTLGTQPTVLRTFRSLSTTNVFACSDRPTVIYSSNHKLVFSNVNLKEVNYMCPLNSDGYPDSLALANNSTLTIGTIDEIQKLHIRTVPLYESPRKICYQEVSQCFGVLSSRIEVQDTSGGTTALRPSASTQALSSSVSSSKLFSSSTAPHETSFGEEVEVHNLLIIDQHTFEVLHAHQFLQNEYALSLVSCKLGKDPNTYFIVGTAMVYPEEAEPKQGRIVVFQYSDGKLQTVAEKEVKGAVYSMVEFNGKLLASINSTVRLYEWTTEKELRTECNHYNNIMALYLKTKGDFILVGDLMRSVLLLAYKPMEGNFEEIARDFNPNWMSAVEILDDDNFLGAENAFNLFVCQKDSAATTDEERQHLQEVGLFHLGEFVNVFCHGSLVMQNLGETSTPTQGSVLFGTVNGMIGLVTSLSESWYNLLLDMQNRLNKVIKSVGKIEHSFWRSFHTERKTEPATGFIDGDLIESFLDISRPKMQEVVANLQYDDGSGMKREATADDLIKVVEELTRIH

O=C1CCC(c2nc3ccc(C(=O)N4CCc5ccc(F)cc54)cc3o2)C(=O)N1 (centres unmarked) [Example 107, 3-(6-(6-fluoroindoline-1-carbonyl)benzo[d]oxazol-2-yl)piperidine-2,6-dione]
IC50 (NCI-H1155 cells; [1]): 100 to 1000 nM
DC50 (GSPT1; [2]): 300 to 1000 nM

Cc1ccc(C2CC3(C2)CN(C(=O)c2ccc4c(c2)CN(C2CCC(=O)NC2=O)C4=O)C3)cc1 (centres unmarked) [Example 231, 3-(1-oxo-5-(6-(p-tolyl)-2-azaspiro[3.3]heptane-2-carbonyl)isoindolin-2-yl)piperidine-2,6-dione]
IC50 (NCI-H1155 cells; [1]): < 10 nM
DC50 (GSPT1; [2]): < 100 nM

Cc1ccc(C2CC3(CC(NC(=O)c4ccc5c(c4)CN(C4CCC(=O)NC4=O)C5=O)C3)C2)cc1 (centres unmarked) [Example 227, 2-(2,6-dioxopiperidin-3-yl)-1-oxo-N-(6-(p-tolyl)spiro[3.3]heptan-2-yl)isoindoline-5-carboxamide]
IC50 (NCI-H1155 cells; [1]): < 10 nM
DC50 (GSPT1; [3]): < 100 nM

O=C1CCC(N2Cc3cc(C(=O)NC4CC5(C4)CC(c4ccc(F)cc4F)C5)ccc3C2=O)C(=O)N1 (centres unmarked) [Example 218, N-(6-(2,4-difluorophenyl)spiro[3.3]heptan-2-yl)-2-(2,6-dioxopiperidin-3-yl)-1-oxoisoindoline-5-carboxamide]
IC50 (NCI-H1155 cells; [1]): < 10 nM
DC50 (GSPT1; [2]): < 100 nM

Cc1cccc2c1CN(C(=O)c1ccc3nc(C4CCC(=O)NC4=O)oc3c1)C2 (centres unmarked) [Example 161, 3-(6-(4-methylisoindoline-2-carbonyl)benzo[d]oxazol-2-yl)piperidine-2,6-dione]
IC50 (NCI-H1155 cells; [1]): 10 to 100 nM
DC50 (GSPT1; [2]): 100 to 300 nM

O=C1CCC(N2Cc3cc(C(=O)N4CC5(CCC(OC(F)(F)F)CC5)C4)ccc3C2=O)C(=O)N1 (centres unmarked) [Example 184, 3-(1-oxo-5-(7-(trifluoromethoxy)-2-azaspiro[3.5]nonane-2-carbonyl)isoindolin-2-yl)piperidine-2,6-dione]
IC50 (NCI-H1155 cells; [1]): 10 to 100 nM
DC50 (GSPT1; [2]): 100 to 300 nM

O=C1CCC(N2Cc3cc(C(=O)N4CC5(C=C(c6ccccc6F)C5)C4)ccc3C2=O)C(=O)N1 (centres unmarked) [Example 208, 3-(5-(6-(2-fluorophenyl)-2-azaspiro[3.3]hept-5-ene-2-carbonyl)-1-oxoisoindolin-2-yl)piperidine-2,6-dione]
IC50 (NCI-H1155 cells; [1]): < 10 nM
DC50 (GSPT1; [3]): < 100 nM

O=C1CCC(c2nc3ccc(C(=O)N4Cc5ccc(F)c(Cl)c5C4)cc3o2)C(=O)N1 (centres unmarked) [Example 197, 3-(6-(4-chloro-5-fluoroisoindoline-2-carbonyl)benzo[d]oxazol-2-yl)piperidine-2,6-dione]
IC50 (NCI-H1155 cells; [1]): 100 to 1000 nM
DC50 (GSPT1; [2]): > 1000 nM

O=C1CCC(N2Cc3cc(C(=O)N4Cc5cccc(Cl)c5C4)ccc3C2=O)C(=O)N1 (centres unmarked) [Example 112, 3-(5-(4-chloroisoindoline-2-carbonyl)-1-oxoisoindolin-2-yl)piperidine-2,6-dione]
IC50 (NCI-H1155 cells; [1]): < 10 nM
DC50 (GSPT1; [3]): < 100 nM

O=C1CCC(c2nc3cc(COC(=O)Nc4cc(OC(F)(F)F)ccc4F)ccc3o2)C(=O)N1 (centres unmarked) [Example 164, (2-(2,6-dioxopiperidin-3-yl)benzo[d]oxazol-5-yl)methyl (2-fluoro-5-(trifluoromethoxy)phenyl)carbamate]
IC50 (NCI-H1155 cells; [1]): 10 to 100 nM
DC50 (GSPT1; [2]): 100 to 300 nM

O=C1CCC(c2nc3ccc(C(=O)N4Cc5cc(F)cc(Cl)c5C4)cc3o2)C(=O)N1 (centres unmarked) [Example 178, 3-(6-(4-chloro-6-fluoroisoindoline-2-carbonyl)benzo[d]oxazol-2-yl)piperidine-2,6-dione]
IC50 (NCI-H1155 cells; [1]): 10 to 100 nM
DC50 (GSPT1; [2]): 300 to 1000 nM

O=C1CCC(N2Cc3cc(C(=O)N4CC(F)(c5ccccc5F)C4)ccc3C2=O)C(=O)N1 (centres unmarked) [Example 202, 3-(5-(3-fluoro-3-(2-fluorophenyl)azetidine-1-carbonyl)-1-oxoisoindolin-2-yl)piperidine-2,6-dione]
IC50 (NCI-H1155 cells; [1]): 10 to 100 nM
DC50 (GSPT1; [3]): 100 to 300 nM

O=C1CCC(N2Cc3cc(C(=O)N4CC5(C4)CC(F)(c4cccc(F)c4)C5)ccc3C2=O)C(=O)N1 (centres unmarked) [Example 203, 3-(5-(6-fluoro-6-(3-fluorophenyl)-2-azaspiro[3.3]heptane-2-carbonyl)-1-oxoisoindolin-2-yl)piperidine-2,6-dione]
IC50 (NCI-H1155 cells; NCI-H1155, 72 h): 100 to 1000 nM
DC50 (GSPT1; [3]): > 1000 nM

O=C1CCC(N2Cc3cc(C(=O)NC4CC5(C4)CC(c4ccc(F)cc4F)C5)c(F)cc3C2=O)C(=O)N1 (centres unmarked) [Example 255, N-(6-(2,4-difluorophenyl)spiro[3.3]heptan-2-yl)-2-(2,6-dioxopiperidin-3-yl)-6-fluoro-1-oxoisoindoline-5-carboxamide]
IC50 (NCI-H1155 cells; [1]): 10 to 100 nM
DC50 (GSPT1; [2]): < 100 nM

O=C1CCC(N2Cc3cc(C(=O)N4CC5(C=C(c6ccc(C(F)(F)F)cc6F)C5)C4)ccc3C2=O)C(=O)N1 (centres unmarked) [Example 241, 3-(5-(6-(2-fluoro-4-(trifluoromethyl)phenyl)-2-azaspiro[3.3]hept-5-ene-2-carbonyl)-1-oxoisoindolin-2-yl)piperidine-2,6-dione]
IC50 (NCI-H1155 cells; [1]): 10 to 100 nM
DC50 (GSPT1; [3]): < 100 nM

O=C1CCC(N2Cc3cc(C(=O)N4CC5(CC(c6ccc(C(F)(F)F)cc6)C5)C4)ccc3C2=O)C(=O)N1 (centres unmarked) [Example 230, 3-(1-oxo-5-(6-(4-(trifluoromethyl)phenyl)-2-azaspiro[3.3]heptane-2-carbonyl)isoindolin-2-yl)piperidine-2,6-dione]
IC50 (NCI-H1155 cells; [1]): < 10 nM
DC50 (GSPT1; [2]): < 100 nM

O=C1CCC(N2Cc3cc(C(=O)NC4CC5(C4)CC(c4ccc(F)c(F)c4)C5)ccc3C2=O)C(=O)N1 (centres unmarked) [Example 217, N-(6-(3,4-difluorophenyl)spiro[3.3]heptan-2-yl)-2-(2,6-dioxopiperidin-3-yl)-1-oxoisoindoline-5-carboxamide]
IC50 (NCI-H1155 cells; [1]): 10 to 100 nM
DC50 (GSPT1; [2]): 100 to 300 nM

O=C1CCC(N2Cc3cc(C(=O)N4CC5(C=C(c6ccc(F)cc6F)C5)C4)ccc3C2=O)C(=O)N1 (centres unmarked) [Example 235]
IC50 (NCI-H1155 cells; [1]): < 10 nM
DC50 (GSPT1; [3]): < 100 nM

O=C1CCC(N2Cc3cc(C(=O)N4Cc5cc(F)cc(C(F)(F)F)c5C4)ccc3C2=O)C(=O)N1 (centres unmarked) [Example 264, 3-(5-(6-fluoro-4-(trifluoromethyl)isoindoline-2-carbonyl)-1-oxoisoindolin-2-yl)piperidine-2,6-dione]
IC50 (NCI-H1155 cells; [1]): 10 to 100 nM
DC50 (GSPT1; [3]): < 100 nM

O=C1CCC(c2nc3ccc(C(=O)N4Cc5cc(F)cc(F)c5C4)cc3o2)C(=O)N1 (centres unmarked) [Example 176, 3-(6-(4,6-difluoroisoindoline-2-carbonyl)benzo[d]oxazol-2-yl)piperidine-2,6-dione]
IC50 (NCI-H1155 cells; [1]): 100 to 1000 nM
DC50 (GSPT1; [2]): 300 to 1000 nM

O=C1CCC(N2Cc3cc(C(=O)NC4CC5(C=C(c6ccc(F)cc6F)C5)C4)c(F)cc3C2=O)C(=O)N1 (centres unmarked) [Example 254, N-(6-(2,4-difluorophenyl)spiro[3.3]hept-5-en-2-yl)-2-(2,6-dioxopiperidin-3-yl)-6-fluoro-1-oxoisoindoline-5-carboxamide]
IC50 (NCI-H1155 cells; [1]): 10 to 100 nM
DC50 (GSPT1; [2]): 100 to 300 nM

C[C@@H]1CN(C(=O)c2ccc3c(c2)CN(C2CCC(=O)NC2=O)C3=O)c2cc(F)ccc21 (stereo partly drawn) [Example 133, 3-(5-((S)-6-fluoro-3-methylindoline-1-carbonyl)-1-oxoisoindolin-2-yl)piperidine-2,6-dione]
IC50 (NCI-H1155 cells; [1]): < 10 nM
DC50 (GSPT1; [3]): < 100 nM

O=C1CCC(N2Cc3cc(C(=O)NC4CC5(C4)CC(c4ccc(C(F)(F)F)cc4F)C5)ccc3C2=O)C(=O)N1 (centres unmarked) [Example 258, 2-(2,6-dioxopiperidin-3-yl)-N-(6-(2-fluoro-4-(trifluoromethyl)phenyl)spiro[3.3]heptan-2-yl)-1-oxoisoindoline-5-carboxamide]
IC50 (NCI-H1155 cells; [1]): 100 to 1000 nM
DC50 (GSPT1; [2]): 100 to 300 nM

N#Cc1cc(F)c2c(c1)CN(C(=O)c1ccc3nc(C4CCC(=O)NC4=O)oc3c1)C2 (centres unmarked) [Example 200, 2-(2-(2,6-dioxopiperidin-3-yl)benzo[d]oxazole-6-carbonyl)-7-fluoroisoindoline-5-carbonitrile]
IC50 (NCI-H1155 cells; [1]): 100 to 1000 nM
DC50 (GSPT1; [2]): > 1000 nM

Cc1ccc(C2=CC3(C2)CN(C(=O)c2ccc4c(c2)CN(C2CCC(=O)NC2=O)C4=O)C3)cc1 (centres unmarked) [Example 236, 3-(1-oxo-5-(6-(p-tolyl)-2-azaspiro[3.3]hept-5-ene-2-carbonyl)isoindolin-2-yl)piperidine-2,6-dione]
IC50 (NCI-H1155 cells; [1]): < 10 nM
DC50 (GSPT1; [3]): < 100 nM

O=C1CCC(N2Cc3cc(C(=O)N4Cc5ccc(F)c(F)c5C4)ccc3C2=O)C(=O)N1 (centres unmarked) [Example 109, 3-(5-(4,5-difluoroisoindoline-2-carbonyl)-1-oxoisoindolin-2-yl)piperidine-2,6-dione]
IC50 (NCI-H1155 cells; [1]): 10 to 100 nM
DC50 (GSPT1; [3]): < 100 nM

O=C1CCC(N2Cc3cc(C(=O)N4CC5(CC(c6ccc(F)cc6)C5)C4)ccc3C2=O)C(=O)N1 (centres unmarked) [Example 205, 3-(5-(6-(4-fluorophenyl)-2-azaspiro[3.3]heptane-2-carbonyl)-1-oxoisoindolin-2-yl)piperidine-2,6-dione]
IC50 (NCI-H1155 cells; [1]): 10 to 100 nM
DC50 (GSPT1; [2]): 100 to 300 nM

O=C1CCC(N2Cc3cc(C(=O)N4CC5(CC(c6ccccc6F)C5)C4)ccc3C2=O)C(=O)N1 (centres unmarked) [Example 196, 3-(5-(6-(2-fluorophenyl)-2-azaspiro[3.3]heptane-2-carbonyl)-1-oxoisoindolin-2-yl)piperidine-2,6-dione]
IC50 (NCI-H1155 cells; [1]): 10 to 100 nM
DC50 (GSPT1; [2]): < 100 nM

O=C1CCC(N2Cc3cc(C(=O)N4CC5(CC(C(F)(F)F)C5)C4)ccc3C2=O)C(=O)N1 (centres unmarked) [Example 145, 3-(1-oxo-5-(6-(trifluoromethyl)-2-azaspiro[3.3]heptane-2-carbonyl)isoindolin-2-yl)piperidine-2,6-dione]
IC50 (NCI-H1155 cells; [1]): 10 to 100 nM
DC50 (GSPT1; [3]): > 1000 nM

O=C1CCC(N2Cc3cc(C(=O)N4Cc5c(F)ccc(F)c5C4)ccc3C2=O)C(=O)N1 (centres unmarked) [Example 147, 3-(5-(4,7-difluoroisoindoline-2-carbonyl)-1-oxoisoindolin-2-yl)piperidine-2,6-dione]
IC50 (NCI-H1155 cells; [1]): 10 to 100 nM
DC50 (GSPT1; [3]): < 100 nM

Cc1cc(F)c2c(c1)CN(C(=O)c1ccc3nc(C4CCC(=O)NC4=O)oc3c1)C2 (centres unmarked) [Example 199, 3-(6-(4-fluoro-6-methylisoindoline-2-carbonyl)benzo[d]oxazol-2-yl)piperidine-2,6-dione]
IC50 (NCI-H1155 cells; [1]): 100 to 1000 nM
DC50 (GSPT1; [2]): > 1000 nM
